Results from US7557215B2, “Anthraquinone compounds as anti cancer compounds” (Somanta Limited, priority 2003, dated 2009).
pIC50: −log10 of the molar value. Where two headings read alike, the source gives them in different places.

Tests used:
A2780 [1] = assay: Inhibition of cell growth, A2780 wild type ovarian carcinoma cell line
A2780 [2] = test system: A2780
[3] = test system: cisplatin resistant variant (A2780/cp70) xenograft; assay: Tumour doubling time, cisplatin resistant variant xenograft A2780/cp70 in mice; assay type: in vivo; conditions: 20 mg/kg i.p.
Excerpt: (§1) Compound HAQ71, with the lowest RF (0.2) of the panel of compounds tested against the cisplatin resistant cells and its chloropropyl-substituted analogue, was selected for in vivo investigation in mice using tumour A2780 and A2780/cp70 cells grown as xenografts in mice. Significant anticancer activity in vivo of HAQ71 and CAQ75 was shown; both compounds exerting similar tumour growth delay in human xenografted wild-type and acquired cisplatin resistant tumours (A2780/cp70). The latter is very refractory to cisplatin and other covalent binding agents and has been characterised with elevated levels of glutathione, alterations in drug uptake/efflux and DNA repair mechanisms including mismatch repair deficiency.

A2780/cp70 = assay: Inhibition of cell growth, cisplatin resistant A2780/cp70 cell line; assay type: cell-based, human; conditions: text b280, b283
[4] = test system: human ovarian tumour xenograft (A2780); assay: Tumour doubling time, human ovarian tumour xenograft A2780 in mice; assay type: in vivo; conditions: 20 mg/kg i.p.
Excerpt: as §1

Row | SMILES | pIC50 (A2780 [1]; read-out: Growth Inhibition (IC50) A2780, A2780, Table 4) | cytotoxicity ratio (CR=IC50 of alkylaminoanthraquinone-di-N-oxide/IC50 alkylaminoanthraquinone) (A2780 [2]) | doubling time (days) of tumour xenograft [3] | tumour growth delay (%) [3] | IC50 (A2780 [1]; read-out: Inhibition of cell growth (IC50, nM) A2780, A2780, Table 1) | RF against the cisplatin resistant cells (A2780/cp70) | doubling time (days) of tumour xenograft [4] | tumour doubling time, percent [4]
1 | C[N+](C)([O-])CCNc1ccc(NCC[N+](C)(C)[O-])c2c1C(=O)c1c(O)ccc(O)c1C2=O [AQ4N] | < 4.00 | 17,000 | – | – | – | – | – | –
2 | CN(C)CCNc1ccc(NCCN2CCCC(CO)C2)c2c1C(=O)c1c(O)ccc(O)c1C2=O (centres unmarked) [HAQ71, 1-[(2-Dimethylamino)ethylamino]-4-[2-(3-hydroxymethyl-piperidin-1-yl)ethylamino]-5,8-dihydroxy-anthracene-9,10-dione] | – | – | 4.33 ± 0.16 days | 172% | 8.4 nM | 0.2 | 5.23 ± 0.39 days | 177%
